Reference: article PMC11530130, “Peripherally restricted PICK1 inhibitor mPD5 ameliorates pain behaviors in murine inflammatory and neuropathic pain models” (JCI Insight, 2024)
“And” between values parts separate entries of the source, which are not always exact repeats. Equal entries are not always repeated.

What was measured:
Type in all cases: in vivo, mouse
naive mice [1] = assay: Hot water tail immersion (tail-flick) test; conditions: for tail-flick time, individual mice: water of 49°C, hr 1, male and female
Protocol: To compare pain-relevant vocalizations, only short and constant USVs of 37 kHz were counted […]
Tail-Flick immersion test
Naïve wildtype male and female mice (10 weeks of age) were habituated to handling and experimental set up for one week prior to data collection. On the day of data collection, a baseline measurement was performed prior to injection of compounds. One measurement consisted of immersion of 2/3rds of the tail in water (49 °C) for maximum ten seconds, three times with an interval of ten seconds between each measurement using the mean of the three measurements. After baseline, mice were injected s.c. with mPD5 10 μmol/kg mPD5, 10 mg/kg morphine (RH Pharmacy, Denmark, Vnr. 475249), or sterile PBS one hour before undergoing the tail-flick hot water immersion assay again.
Mice were pretreated with 10 μmol/kg mPD5, 10 mg/kg morphine (RH Pharmacy, Denmark, Vnr. 475249), or PBS 45 min before habituation to observation container (glass cylinder surrounded by mirrors on 2 sides) for 15 min. Mice then received an intraplantar injection of 20 µl capsaicin (1.6 ug/paw) (sigma CAS Number:404-86-4, diluted with 1:1:8 solution of tween-20, 70% ethanol, and MilliQ water) in one hind paw and were reintroduced to the observation container. Mice were recorded for three min after i.pl. injection with capsaicin and euthanized the same day. Mice were scored manually for the amount of time spent paw licking within three min after capsaicin administration.
Mice were 10 weeks old at the beginning of the experiment and acclimatized to the animal facility for two weeks after arrival. Male mice were randomized into two groups (n = 8/group) and weighed and injected s.c. once daily (between 3 pm and 4 pm) for 14 days with sterile PBS or 10 μmol/kg mPD5 (diluted in sterile PBS and pH adjusted to 7.4). After 14 days of dosing, the males were paired with female mice in fresh cages, and the number of pubs counted for 35 days (males were removed from the breeding cages after 14 days). Following the 14 days mating period, males were sacrificed by cervical dislocation caudae epidymidis were removed and weighed. Caudae epidymidis were cut into smaller pieces in 2 mL PBS (37 °C) and incubated (37 °C, 5% CO2) for 15 min. Following incubation, the mix was swirled gently, and 0.5 mL of the liquid was transferred to room tempered PBS to achieve a final volume of 1 mL.
Subsequently, sperm count was determined by transferring 50 µL of the sample to a hemocytometer, and each sample was determined in duplicate by an experimenter blinded to drug treatment. Following criteria were assessed: mobility (forward and circular), local tail mobility and total number. Females were weighed on a regular basis from removal of the males […]
Unless otherwise stated, all data were analysed using GraphPad Prism 9.4.1. and presented as mean +-SEM with the significance level set to p < 0.05. For locomotion and elevated plus maze, Ethovision XT 13 (Noldus) was used to track the distance travelled by each animal. For within group analysis (i.e., von Frey experiments), two-way ANOVA followed by Dunnett’s post hoc test was used. For between group analysis of multiple time points (i.e., locomotion experiments), two-way ANOVA was used without post hoc test due to lack of treatment significance in the ANOVA test. For the limb use experiment, data pre versus post treatment was analysed with a Kruskal Wallis test due to the non-parametric nature of the data. […]

naive mice [2] = assay: Conditioned place preference (CPP); conditions: for locomotion during conditioning compared with PBS / time in the drug-paired compartment during the posttest compared with PBS: naive mice
Protocol: compartment and that a single exposure of psychostimulants in the grey compartment sufficiently changes the preference towards that compartment (9-11). For further details of the setup, we refer to (10). Experiments lasted three days with exposure sessions on days one and two and a preference test on day three. On each day, animals were moved from the housing facility to the experimental room and allowed to acclimatize for at least 60 min before initiation of the experiment. mPD5 was paired with the grey compartment, known to be the least preferred compartment (10, 11). All mice from a cage were tested at the same time, but not all were given the same treatment. Mice were weighed and injected s.c. with PBS or 30 μmol/kg mPD5. For the sePP on CFA-injected mice, the injury was induced as described in “Induction of inflammatory pain (CFA model)”-section. sePP was run on day 3-5 after CFA-injection, and von Frey was performed on days 0, 2, and 5 as described in the “Mechanically-evoked pain (von Frey)”-section.
Conditioned place preference.
CPP was performed in Med-Associates square behavioral chambers fitted with beam-break movement detection. Chambers are split in two (27.3 x 13.5 cm each) with a red Plexiglas wall (allowing penetrance of the beams) and a predictable-preference design. Least-preferred compartment: white walls + floor and a transparent lid. Preferred compartment: horizontal grey and black stripes on the wall and lid with a light grey upside-down Lego® floor. Mice can freely move between the two compartments through a 4x4 cm opening in the separating wall during pretest and posttest but are confined to one compartment during conditionings.
Pretest (DAY 1): To test the basal preference of the mice, they were placed in the chamber to freely move between the two compartments for 30 min. Time spent in each compartment was […]
compartment was used to define three even groups.
Conditioning (DAY 2-9): Mice were injected s.c. with PBS, morphine (10 mg/kg) (RH Pharmacy, Denmark, Vnr. 475249), or 10 μmol/kg mPD5 immediately before being placed in and confined to the appropriate compartment for 40 min. Drug was paired to the least-preferred compartment, conditioning was alternated so that mice were never placed in the same compartment two days in a row, and the day on which they were exposed to drug was […]
Preference test (DAY 10): Mice were allowed to freely move between the two compartments […]
Ultrasonic vocalisation (USV) recordings.
Mice were left in Med-Associates square behavioral chambers (27 cm x 27 cm) to freely roam around for 60 min, four days in a row. The first two days were for habituation, but on the third and fourth days, USV recordings were performed using an Avisoft UltraSoundGate 416Hb recording interface (Model CM16-CMPA, Avisoft Bioacoustics, Germany) at a sampling rate of 250,000 Hz in 16-bit format kindly loaned by Morgan Thomsen and Simone Tonetto (Department of Neuroscience, University of Copenhagen, Copenhagen). On day three, both control and SNI mice were placed directly in the chambers and recorded for 60 min. On day four, control mice were injected s.c. with PBS, and SNI mice were injected with either 10 μmol/kg mPD5 or PBS immediately before being placed in the chambers and recorded for 60 min. The recordings were analyzed using the Avisoft SASLab Pro software (Version 5.02.07, Avisoft Bioacoustics) as described in (12), applying a fast fourier transformation (FFT) (1024 FTT length, 100% frame size, Blackman window, and 87.5% time window overlap).
Spectrograms were produced at a frequency resolution of 244 Hz and a time resolution of 0.512 ms. Spectrogram analysis was performed using an automatic whistle-tracking algorithm with an element separation threshold of -45 dB, 1 ms minimal duration, and a hold time of 10 ms.

[3] = Plasma exposure after repeated s.c. administration (10 + 2 + 2 + 2 + 2 μmol/kg), LC-MS/MS; conditions: 10µmol/kg repeated

| SMILES | tail-flick time, individual mice (naive mice [1]; 10 mg/kg, female mice) | tail-flick time, individual mice (naive mice [1]; 10 mg/kg, male mice) | Conditioned place preference, Fig 6O, individual mice (naive mice [2]; 10 mg/kg) | CPP conditioning session value, Fig 6N, individual mice (naive mice [2]; Cond1, 10 mg/kg) | CPP conditioning session value, Fig 6N, individual mice (naive mice [2]; Cond2, 10 mg/kg) | CPP conditioning session value, Fig 6N, individual mice (naive mice [2]; Cond3, 10 mg/kg) | CPP conditioning session value, Fig 6N, individual mice (naive mice [2]; Cond4, 10 mg/kg) | locomotion during conditioning compared with PBS (naive mice [2]; s.c. 10 mg/kg) | time in the drug-paired compartment during the posttest compared with PBS (naive mice [2]; s.c. 10 mg/kg) | effect on tail-flick latency compared with baseline (naive mice [1]; naive mice, both sexes, s.c. 10 μmol/kg) | tail-flick time, individual mice (naive mice [1]; 10 umol/kg, female mice) | tail-flick time, individual mice (naive mice [1]; 10 umol/kg, male mice) | Conditioned place preference, Fig 6O, individual mice (naive mice [2]; 10 umol/kg) | CPP conditioning session value, Fig 6N, individual mice (naive mice [2]; Cond1, 10 umol/kg) | CPP conditioning session value, Fig 6N, individual mice (naive mice [2]; Cond2, 10 umol/kg) | CPP conditioning session value, Fig 6N, individual mice (naive mice [2]; Cond3, 10 umol/kg) | CPP conditioning session value, Fig 6N, individual mice (naive mice [2]; Cond4, 10 umol/kg) | locomotion during conditioning compared with PBS (naive mice [2]; s.c. 10 μmol/kg) | time in the drug-paired compartment during the posttest compared with PBS (naive mice [2]; s.c. 10 μmol/kg) | Plasma exposure, Fig 7B, individual mice [3] |
| --- | --- | --- | --- | --- | --- | --- | --- | --- | --- | --- | --- | --- | --- | --- | --- | --- | --- | --- | --- | --- |
| CN1CC[C@]23c4c5ccc(O)c4O[C@H]2[C@@H](O)C=C[C@H]3[C@H]1C5 [morphine] | 10 | 10 (2×) and 6 and 7 | 641.2 and 758.05 and 523.1 and 617.25 and 422.75 and 543.85 and 370.9 and 516.75 | 9137.98 and 12057.9 and 7914.76 and 12165.9 and 13969.3 and 7487.52 and 2666.42 and 10528.9 | 15370.1 and 15969.7 and 11493.6 and 16698.2 and 17811.8 and 8242.22 and 9139.38 and 16599.9 | 15699.6 and 17306.6 and 14219.9 and 18863.2 and 19954.9 and 11799.1 and 7739.36 and 18695.7 | 14707.1 and 15254.9 and 15074.4 and 17950.9 and 21599.6 and 11535.1 and 8924.2 and 17697.5 | significantly increased locomotion | significantly more time in the drug-paired compartment | – | – | – | – | – | – | – | – | – | – | – |
| CCCCCCCCCCCCCC(=O)N(CCOCCOCCC(=O)N[C@@H](Cc1c[nH]cn1)C(=O)N[C@@H](Cc1c[nH]c2ccccc12)C(=O)N[C@@H](CC(C)C)C(=O)N[C@@H](CCCCN)C(=O)N[C@H](C(=O)O)C(C)C)CCOCCOCCC(=O)N[C@@H](Cc1c[nH]cn1)C(=O)N[C@@H](Cc1c[nH]c2ccccc12)C(=O)N[C@@H](CC(C)C)C(=O)N[C@@H](CCCCN)C(=O)N[C@H](C(=O)O)C(C)C [mPD5, myristoyl-NPEG4-(HWLKV)2] | – | – | – | – | – | – | – | – | – | no effect on tail-flick latency | 3 and 4 (2×) and 5 | 3 (2×) and 2 and 4 | 422.4 and 657.8 and 145.75 and 377.8 and 709.7 and 623.7 and 240.55 and 244.05 | 2308.61 and 1809.85 and 2224.56 and 2674.86 and 871.493 and 1226.84 and 1378.23 and 2217.21 | 1180.49 and 1059.56 and 1212.87 and 2147.54 and 783.988 and 1076.18 and 1174.28 and 2455.85 | 1906.76 and 766.515 and 1139.87 and 2374.29 and 1205.41 and 1378.46 and 1356.35 and 1697.51 | 2079.11 and 1457.65 and 2495.22 and 2149.64 and 1597.67 and 2463.25 and 958.529 and 1951.51 | did not affect locomotion | did not | 2068 and 1389 and 1614 |
